Measured values: ChEMBL document CHEMBL3784933, “Synthesis and antitumor evaluation of trimethoxyanilides based on 4(3H)-quinazolinone scaffolds” (2016)

Assays:
Assay type in all cases: functional
[1] = Cytotoxicity against human MOLT4 cells assessed as growth inhibition at 10 uM after 48 hrs by SRB assay; settings: MOLT-4, 48 h, read-out: GI
[2] = system: T47D; experiment: Cytotoxicity against human T47D cells assessed as growth inhibition at 10 uM after 48 hrs by SRB assay; settings: read-out: GI
[3] = system: A498; experiment: Cytotoxicity against human A498 cells assessed as growth inhibition at 10 uM after 48 hrs by SRB assay; settings: A498, 48 h, read-out: GI
[4] = Cytotoxicity against human HOP92 cells assessed as growth inhibition at 10 uM after 48 hrs by SRB assay; settings: HOP-92, 48 h, read-out: GI
[5] = Cytotoxicity against human SF268 cells assessed as growth inhibition at 10 uM after 48 hrs by SRB assay; settings: SF-268, 48 h, read-out: GI
[6] = system: NCI-H522; experiment: Cytotoxicity against human NCI-H522 cells assessed as growth inhibition at 10 uM after 48 hrs by SRB assay; settings: NCI-H522, 48 h, read-out: GI
[7] = Cytotoxicity against human UO31 cells assessed as growth inhibition at 10 uM after 48 hrs by SRB assay; settings: UO-31, 48 h, read-out: GI
[8] = system: SK-MEL-5; experiment: Cytotoxicity against human SK-MEL-5 cells assessed as growth inhibition at 10 uM after 48 hrs by SRB assay; settings: SK-MEL-5, 48 h, read-out: GI
[9] = Cytotoxicity against human LOXIMVI cells assessed as growth inhibition at 10 uM after 48 hrs by SRB assay; settings: LOX IMVI, read-out: GI
[10] = Cytotoxicity against human UACC62 cells assessed as growth inhibition at 10 uM after 48 hrs by SRB assay; settings: UACC-62, 48 h, read-out: GI
[11] = system: NCI-H23; experiment: Cytotoxicity against human NCI-H23 cells assessed as growth inhibition at 10 uM after 48 hrs by SRB assay; settings: NCI-H23, 48 h, read-out: GI
[12] = Cytotoxicity against human SNB75 cells assessed as growth inhibition at 10 uM after 48 hrs by SRB assay; settings: SNB-75, 48 h, read-out: GI
[13] = Cytotoxicity against human RPMI8226 cells assessed as growth inhibition at 10 uM after 48 hrs by SRB assay; settings: RPMI-8226, 48 h, read-out: GI
[14] = system: K562; experiment: Cytotoxicity against human K562 cells assessed as growth inhibition at 10 uM after 48 hrs by SRB assay; settings: K562, 48 h, read-out: GI
[15] = Cytotoxicity against human Hs 578T cells assessed as growth inhibition at 10 uM after 48 hrs by SRB assay; settings: read-out: GI
[16] = system: MDA-MB-231; experiment: Cytotoxicity against human MDA-MB-231 cells assessed as growth inhibition at 10 uM after 48 hrs by SRB assay; settings: MDA-MB-231, 48 h, read-out: GI
[17] = system: EKVX; experiment: Cytotoxicity against human EKVX cells assessed as growth inhibition at 10 uM after 48 hrs by SRB assay; settings: read-out: GI
[18] = Cytotoxicity against human Caki1 cells assessed as growth inhibition at 10 uM after 48 hrs by SRB assay; settings: CAKI-1, 48 h, read-out: GI
[19] = Cytotoxicity against human PC3 cells assessed as growth inhibition at 10 uM after 48 hrs by SRB assay; settings: PC-3, 48 h, read-out: GI
[20] = system: SR; experiment: Cytotoxicity against human SR cells assessed as growth inhibition at 10 uM after 48 hrs by SRB assay; settings: read-out: GI
[21] = system: A549; experiment: Cytotoxicity against human A549 cells assessed as growth inhibition at 10 uM after 48 hrs by SRB assay; settings: A549, 48 h, read-out: GI
[22] = system: CCRF-CEM; experiment: Cytotoxicity against human CCRF-CEM cells assessed as growth inhibition at 10 uM after 48 hrs by SRB assay; settings: read-out: GI
[23] = system: U-251; experiment: Cytotoxicity against human U251 cells assessed as growth inhibition at 10 uM after 48 hrs by SRB assay; settings: U-251, 48 h, read-out: GI
[24] = system: MCF7; experiment: Cytotoxicity against human MCF7 cells assessed as growth inhibition at 10 uM after 48 hrs by SRB assay; settings: MCF7, 48 h, read-out: GI
[25] = Cytotoxicity against human OVCAR4 cells assessed as growth inhibition at 10 uM after 48 hrs by SRB assay; settings: OVCAR-4, 48 h, read-out: GI
[26] = Cytotoxicity against human SF295 cells assessed as growth inhibition at 10 uM after 48 hrs by SRB assay; settings: SF-295, 48 h, read-out: GI
[27] = system: ACHN; experiment: Cytotoxicity against human ACHN cells assessed as growth inhibition at 10 uM after 48 hrs by SRB assay; settings: read-out: GI
[28] = system: SN12C; experiment: Cytotoxicity against human SN12C cells assessed as growth inhibition at 10 uM after 48 hrs by SRB assay; settings: read-out: GI
[29] = Cytotoxicity against human BT549 cells assessed as growth inhibition at 10 uM after 48 hrs by SRB assay; settings: BT-549, 48 h, read-out: GI
[30] = Cytotoxicity against human SNB19 cells assessed as growth inhibition at 10 uM after 48 hrs by SRB assay; settings: SNB-19, 48 h, read-out: GI
[31] = system: 786-0; experiment: Cytotoxicity against human 786-0 cells assessed as growth inhibition at 10 uM after 48 hrs by SRB assay; settings: 786-0, 48 h, read-out: GI
[32] = system: MDA-MB-468; experiment: Cytotoxicity against human MDA-MB-468 cells assessed as growth inhibition at 10 uM after 48 hrs by SRB assay; settings: MDA-MB-468, 48 h, read-out: GI
[33] = Cytotoxicity against human HCT15 cells assessed as growth inhibition at 10 uM after 48 hrs by SRB assay; settings: HCT-15, 48 h, read-out: GI
[34] = Cytotoxicity against human NCI-H322 cells assessed as growth inhibition at 10 uM after 48 hrs by SRB assay; settings: NCI-H322, 48 h, read-out: GI
[35] = Cytotoxicity against human HCT116 cells assessed as growth inhibition at 10 uM after 48 hrs by SRB assay; settings: HCT-116, 48 h, read-out: GI
[36] = Cytotoxicity against human UACC257 cells assessed as growth inhibition at 10 uM after 48 hrs by SRB assay; settings: UACC-257, 48 h, read-out: GI
[37] = Cytotoxicity against human RXF393 cells assessed as growth inhibition at 10 uM after 48 hrs by SRB assay; settings: RXF 393, 48 h, read-out: GI
[38] = Cytotoxicity against human SF539 cells assessed as growth inhibition at 10 uM after 48 hrs by SRB assay; settings: SF-539, 48 h, read-out: GI
[39] = system: NCI-H226; experiment: Cytotoxicity against human NCI-H226 cells assessed as growth inhibition at 10 uM after 48 hrs by SRB assay; settings: NCI-H226, 48 h, read-out: GI
[40] = Cytotoxicity against human HOP62 cells assessed as growth inhibition at 10 uM after 48 hrs by SRB assay; settings: HOP-62, 48 h, read-out: GI
[41] = system: Malme-3M; experiment: Cytotoxicity against human MALME-3M cells assessed as growth inhibition at 10 uM after 48 hrs by SRB assay; settings: read-out: GI
[42] = Cytotoxicity against human NCI-ADR-RES cells assessed as growth inhibition at 10 uM after 48 hrs by SRB assay; settings: read-out: GI

SMILES | inhibition of growth at 10 µM [1] [%] | inhibition of growth at 10 µM [2] [%] | inhibition of growth at 10 µM [3] [%] | inhibition of growth at 10 µM [5] [%] | inhibition of growth at 10 µM [6] [%] | inhibition of growth at 10 µM [7] [%] | inhibition of growth at 10 µM [8] [%] | inhibition of growth at 10 µM [9] [%] | inhibition of growth at 10 µM [10] [%] | inhibition of growth at 10 µM [12] [%] | inhibition of growth at 10 µM [13] [%] | inhibition of growth at 10 µM [14] [%] | inhibition of growth at 10 µM [15] [%] | inhibition of growth at 10 µM [16] [%] | inhibition of growth at 10 µM [18] [%] | inhibition of growth at 10 µM [19] [%] | inhibition of growth at 10 µM [20] [%] | inhibition of growth at 10 µM [21] [%] | inhibition of growth at 10 µM [22] [%] | inhibition of growth at 10 µM [25] [%] | further results
COc1cc(NC(=O)CSc2nc3ccccc3c(=O)n2-c2ccc(F)cc2)cc(OC)c1OC | 18 | 23 | 72 | 10 | 19 | 42 | 11 | 10 | 19 | 10 | 14 | 14 | 10 | 24 | 12 |  |  |  |  |  | inhibition of growth at 10 µM [4]: 43%; inhibition of growth at 10 µM [11]: 10%; inhibition of growth at 10 µM [17]: 13%
COc1cc2nc(SCCC(=O)Nc3cc(OC)c(OC)c(OC)c3)n(-c3ccccc3)c(=O)c2cc1OC |  | 14 |  |  | 15 | 25 |  |  |  | 39 | 25 |  |  | 14 | 12 | 18 | 13 | 14 |  |  | 
COc1cc(NC(=O)CCSc2nc3ccccc3c(=O)n2-c2ccccc2)cc(OC)c1OC | 15 | 23 | 46 |  | 49 | 44 |  | 10 | 17 |  | 36 | 31 |  | 41 | 22 | 39 | 17 | 15 | 19 | 24 | inhibition of growth at 10 µM [23]: 10%; inhibition of growth at 10 µM [24]: 16%; inhibition of growth at 10 µM [26]: 13%; inhibition of growth at 10 µM [27]: 18%; inhibition of growth at 10 µM [28]: 18%
COc1cc(NC(=O)CCSc2nc3ccc(Cl)cc3c(=O)n2-c2ccc(F)cc2)cc(OC)c1OC | 28 | 27 | 88 | 19 | 55 | 51 | 20 | 24 | 22 | 59 | 47 | 22 | 34 | 42 | 34 | 51 | 23 | 28 | 24 |  | inhibition of growth at 10 µM [29]: 12%; inhibition of growth at 10 µM [30]: 15%; inhibition of growth at 10 µM [23]: 16%; inhibition of growth at 10 µM [31]: 19%; inhibition of growth at 10 µM [24]: 21%; inhibition of growth at 10 µM [32]: 17%; inhibition of growth at 10 µM [33]: 16%; inhibition of growth at 10 µM [34]: 16%; inhibition of growth at 10 µM [26]: 30%; inhibition of growth at 10 µM [35]: 13%; inhibition of growth at 10 µM [27]: 21%; inhibition of growth at 10 µM [36]: 25%; inhibition of growth at 10 µM [37]: 25%; inhibition of growth at 10 µM [38]: 10%; inhibition of growth at 10 µM [28]: 18%; inhibition of growth at 10 µM [39]: 18%
COc1cc(NC(=O)CCSc2nc3ccc(Cl)cc3c(=O)n2-c2ccccc2)cc(OC)c1OC |  |  | 22 |  |  |  |  |  |  | 21 |  |  |  | 10 |  |  | 18 |  |  | 15 | 
COc1cc2nc(SCCC(=O)Nc3cc(OC)c(OC)c(OC)c3)n(-c3ccc(F)cc3)c(=O)c2cc1OC |  |  | 22 |  |  |  |  |  |  |  |  | 11 |  |  |  |  |  |  |  |  | inhibition of growth at 10 µM [4]: 13%; inhibition of growth at 10 µM [23]: 12%; inhibition of growth at 10 µM [40]: 11%
COc1cc(NC(=O)CSc2nc3ccc(Cl)cc3c(=O)n2-c2ccccc2)cc(OC)c1OC |  | 15 | 54 | 10 | 16 | 50 | 17 | 10 | 25 | 29 |  |  | 19 | 17 | 17 | 20 |  | 12 | 30 | 15 | inhibition of growth at 10 µM [41]: 12%; inhibition of growth at 10 µM [42]: 10%; inhibition of growth at 10 µM [29]: 22%; inhibition of growth at 10 µM [40]: 15%; inhibition of growth at 10 µM [26]: 13%; inhibition of growth at 10 µM [17]: 24%
COc1cc(NC(=O)CSc2nc3ccccc3c(=O)n2-c2ccccc2)cc(OC)c1OC |  | 18 | 54 |  | 11 | 48 | 16 |  | 19 | 27 |  |  | 14 | 23 | 20 | 15 |  |  | 22 | 12 | inhibition of growth at 10 µM [41]: 11%; inhibition of growth at 10 µM [40]: 12%; inhibition of growth at 10 µM [27]: 11%; inhibition of growth at 10 µM [37]: 12%; inhibition of growth at 10 µM [17]: 24%; inhibition of growth at 10 µM [39]: 23%
COc1cc2nc(SCC(=O)Nc3cc(OC)c(OC)c(OC)c3)n(-c3ccc(F)cc3)c(=O)c2cc1OC |  | 20 |  |  | 15 | 38 |  | 14 | 18 |  |  |  |  |  |  |  |  |  | 15 |  | 
